Experimental data reported in patent publication US20090233299A1, “Physiogenomic Method for Predicting Statin Injury to Muscle and Muscle Side Effects” (GENOMAS, INC., priority 2005, published 2009).

Columns and labels:
[1] = human, in vivo
[2] = deaths associated with the drug before its withdrawal in August 2001; cited from earlier work

Median CK [1] [u/l]	Compound	rhabdomyolysis-related deaths [2]
84	CC(C)c1c(C(=O)Nc2ccccc2)c(-c2ccccc2)c(-c2ccc(F)cc2)n1CC[C@@H](O)C[C@@H](O)CC(=O)O [atorvastatin]	
	COCc1c(C(C)C)nc(C(C)C)c(/C=C/[C@@H](O)C[C@@H](O)CC(=O)O)c1-c1ccc(F)cc1 [cerivastatin]	approx. 100
77	CCC(C)(C)C(=O)O[C@H]1C[C@@H](C)C=C2C=C[C@H](C)[C@H](CC[C@@H]3C[C@@H](O)CC(=O)O3)[C@H]21 [simvastatin]	
